Usually mortality stands for the share of the test organisms that died. Broadly, the melting point is the temperature, or range, at which the solid turns liquid. The term EC50 denotes the concentration needed to bring the measured effect to its halfway point. High values mean a less potent agent, low ones a more potent agent.

Consider 22 compounds from patent US8846569B2, “Pesticidal bis-organosulfur compounds” (Merial Limited, priority 2009, dated 2014).

One data set relates to Megoura viciae. In words: Vetch aphid (Megoura viciae) leaf disk test. It is filed as in vivo. The conditions noted are these: foliar, 120 h, read-out: mortality in comparison with untreated controls. As to the method: For evaluating control of vetch aphid (Megoura viciae) through contact or systemic means the test unit consisted of 24-well-microtiter plates containing broad bean leaf disks.
The compounds were formulated using a solution containing 75% v/v water and 25% v/v DMSO. Different concentrations of formulated compounds were sprayed onto the leaf disks at 2.5 μl, using a custom built micro atomizer, at two replications.
After application, the leaf disks were air-dried and 5-8 adult aphids placed on the leaf disks inside the microtiter plate wells. The aphids were then allowed to suck on the treated leaf disks and incubated at about 23±1° C. and about 50±5% relative humidity for 5 days. Aphid mortality and fecundity was then visually assessed.

Another data set relates to Myzus persicae. In words: Green peach aphid (Myzus persicae) artificial diet test. The class given is in vivo. The conditions noted are these: 72 h, read-out: mortality in comparison with untreated controls. The text has this: For evaluating control of green peach aphid (Myzus persicae) the test unit consisted of 96-well-microtiter plates containing liquid artificial diet under an artificial membrane.
The compounds were formulated using a solution containing 75% v/v water and 25% v/v DMSO. Different concentrations of formulated compounds were pipetted into the aphid diet, using a custom built pipetter, at two replications.
After application, 5-8 adult aphids were placed on the artificial membrane inside the microtiter plate wells. The aphids were then allowed to suck on the treated aphid diet and incubated at about 23±1° C. and about 50±5% relative humidity for 3 days. Aphid mortality and fecundity was then visually assessed.

The subject of a further data set is Anthonomus grandis. In words: Boll weevil (Anthonomus grandis) diet/egg test. The class given is in vivo. The conditions noted are these: 120 h, read-out: mortality in comparison with untreated controls. Here is the method: For evaluating control of boll weevil (Anthonomus grandis) the test unit consisted of 24-well-microtiter plates containing an insect diet and 20-30 A. grandis eggs.
The compounds were formulated using a solution containing 75% v/v water and 25% v/v DMSO. Different concentrations of formulated compounds were sprayed onto the insect diet at 20 μl, using a custom built micro atomizer, at two replications.
After application, microtiter plates were incubated at about 23±1° C. and about 50±5% relative humidity for 5 days. Egg and larval mortality was then visually assessed.

The test system of the next data set is Ceratitis capitata. In words: Mediterranean fruitfly (Ceratitis capitata) diet/egg test. The conditions noted are these: 120 h, read-out: mortality in comparison with untreated controls. The class given is in vivo. Here is the method:
For evaluating control of Mediterranean fruitfly (Ceratitis capitata) the test unit consisted of microtiter plates containing an insect diet and 50-80 C. capitata eggs.
The compounds were formulated using a solution containing 75% v/v water and 25% v/v DMSO. Different concentrations of formulated compounds were sprayed onto the insect diet at 5 nl, using a custom built micro atomizer, at two replications.
(§1) After application, microtiter plates were incubated at about 28±1° C. and about 80±5% relative humidity for 5 days. Egg and larval mortality was then visually assessed.

Another data set concerns Aedes aegypti. In words: Aedes aegypti neonate larvae motility assay. The conditions noted are these: larval motility, dose response. It is filed as in vivo. Here is the method: Compounds formulated in 100% DMSO are tested in microtiter plates containing 180 ul 1× Luria Broth media and 10 neonate A. aegypti larvae. The efficacy of a compound is determined based on the motility of the larvae as compared to average motility of control wells containing DMSO only. A dose response assay is conducted with compounds with >80% reduction in motility in the primary assay to determine an EC50 value. Selected compounds are advanced to insecticide secondary assays.

A further data set deals with Heliothis virescens. In words: Tobacco budworm (Heliothis virescens) diet/egg test. It is filed as in vivo. The conditions noted are these: for mortality at 2500 ppm: Heliothis virescens, 120 h, read-out: mortality in comparison with untreated controls. Here is the method: For evaluating control of tobacco budworm (Heliothis virescens) the test unit consisted of 96-well-microtiter plates containing an insect diet and 15-25 H. virescens eggs.
The compounds were formulated using a solution containing 75% v/v water and 25% v/v DMSO. Different concentrations of formulated compounds were sprayed onto the insect diet at 10 μl, using a custom built micro atomizer, at two replications.
as §1
The biological activity shown tables under CB.1 and CB.2 was evaluated on scale range from 0% as showing no biological activity to 100% as having total control. The biological tests were conducted as described above.

Where [1] appears, read: 2500 ppm, adult aphids on sprayed broad bean leaf disks, 5 days.
The mark [2] stands for this setting: 2500 ppm, adult aphids on treated artificial diet, 3 days.
[3] abbreviates: 2500 ppm, egg and larval mortality, 5 days.

Read-outs that look alike come from different tables or passages of the source. Where only a bound is given, the exact number is not on record here.

As to `N#CC(CCSC(F)(F)F)[S+]([O-])CCC(F)(F)C(F)(F)F` (centres unmarked) [II-16, 2-(3,3,4,4,4-Pentafluoro-butane-1-sulfinyl)-4-trifluoromethylsulfanyl-butyronitrile], the mortality at 2500 ppm in the data set with Megoura viciae (setting [1]), in the data set on Myzus persicae (setting [2]), in the data set with Anthonomus grandis (setting [3]) and with Ceratitis capitata (setting [3]) was more than 90% in each case.

On to `N#CC(CCSC(F)(F)F)S(=O)(=O)Cc1ccc(C(F)(F)F)nc1` (centres unmarked) [II-9, 2-(6-Trifluoromethyl-pyridin-3-ylmethanesulfonyl)-4-trifluoromethylsulfanyl-butyronitrile], for which the melting point lay in the range of 129 to 130 °C.

Consider `N#CC(CCSC(F)(F)F)S(=O)(=O)Cc1cccc(C(F)(F)F)c1` (centres unmarked) [II-5, 2-(3-Trifluoromethyl-phenylmethanesulfonyl)-4-trifluoromethylsulfanyl-butyronitrile], for which the melting point lay in the range of 100 to 102 °C. The same compound showed an EC50 with Aedes aegypti of less than 5 µg/mL.

For the compound `CCOC(=O)C(C)(CCSC(F)(F)F)S(=O)(=O)CCC(F)(F)C(F)(F)F` (centres unmarked) [II-4, Ethyl 2-methyl-2-(3,3,4,4,4-pentafluoro-butane-1-sulfonyl)-4-trifluoromethylsulfanyl-butyrate], the mortality at 2500 ppm in the data set on Megoura viciae (setting [1]), with Myzus persicae (setting [2]), in the data set with Anthonomus grandis (setting [3]) and with Ceratitis capitata (setting [3]) was more than 90% throughout. The same compound came in with an EC50 with Aedes aegypti of less than 5 µg/mL.

Take `CC(C#N)(CCSC(F)(F)F)S(=O)(=O)Cn1ccc(C(F)(F)F)n1` (centres unmarked) [II-14, 2-Methyl-2-(3-trifluoromethyl-pyrazol-1-ylmethanesulfonyl)-4-trifluoromethylsulfanyl-butyronitrile]: the mortality at 2500 ppm with Anthonomus grandis (setting [3]) and in the data set on Ceratitis capitata (setting [3]) was more than 90% each time.

Compound `N#CC(CCSC(F)(F)F)S(=O)(=O)Cn1ccc(C(F)(F)F)n1` (centres unmarked) [II-13, 2-(3-Trifluoromethyl-pyrazol-1-ylmethanesulfonyl)-4-trifluoromethylsulfanyl-butyronitrile] came in with a melting point of 65 to 67 °C.

`N#CC(CCSC(F)(F)F)S(=O)(=O)Cc1ccc(C(F)(F)F)cc1` (centres unmarked) [II-11, 2-(4-Trifluoromethyl-phenylmethanesulfonyl)-4-trifluoromethylsulfanyl-butyronitrile] had a melting point of 153 to 155 °C.

On to `CC(C#N)(CCSC(F)(F)F)S(=O)(=O)CCSC(F)(F)F` (centres unmarked) [II-26, 2-Methyl-4-trifluoromethylsulfanyl-2-(2-trifluoromethylsulfanyl-ethanesulfonyl)-butyronitrile], for which, in the data set with Anthonomus grandis (setting [3]), the mortality at 2500 ppm was more than 90%.

`CC(CCSC(F)(F)F)(C(N)=S)S(=O)(=O)CCC(F)(F)C(F)(F)F` (centres unmarked) [II-23, 2-Methyl-2-(3,3,4,4,4-pentafluoro-butane-1-sulfonyl)-4-trifluoromethylsulfanyl-thiobutyramide]: the mortality at 2500 ppm in the data set with Anthonomus grandis (setting [3]), in the data set on Heliothis virescens (setting [3]) and in the data set on Ceratitis capitata (setting [3]) was more than 90% each time.

Consider `CC(CCSC(F)(F)F)(C(N)=O)S(=O)(=O)CCC(F)(F)C(F)(F)F` (centres unmarked) [II-20, 2-Methyl-2-(3,3,4,4,4-pentafluoro-butane-1-sulfonyl)-4-trifluoromethylsulfanyl-butyramide], for which the mortality at 2500 ppm in the data set on Anthonomus grandis (setting [3]) and with Ceratitis capitata (setting [3]) was more than 90% in each case.

Turning to `CC(C#N)(CCSC(F)(F)F)S(=O)(=O)Cc1ccc(C(F)(F)F)nc1` (centres unmarked) [II-10, 2-Methyl-2-(6-trifluoromethyl-pyridin-3-ylmethanesulfonyl)-4-trifluoromethylsulfanyl-butyronitrile], the melting point was 109 to 110 °C.

In the case of `CN(C)C(=O)C(C)(CCSC(F)(F)F)S(=O)(=O)CCC(F)(F)C(F)(F)F` (centres unmarked) [II-22, 2,N,N-Trimethyl-2-(3,3,4,4,4-pentafluoro-butane-1-sulfonyl)-4-trifluoromethylsulfanyl-butyramide], the mortality at 2500 ppm with Megoura viciae (setting [1]), in the data set on Myzus persicae (setting [2]), with Anthonomus grandis (setting [3]) and with Ceratitis capitata (setting [3]) was more than 90% each time. The compound further showed an EC50 with Aedes aegypti of less than 5 µg/mL.

Turning to `CNC(=O)C(C)(CCSC(F)(F)F)S(=O)(=O)CCC(F)(F)C(F)(F)F` (centres unmarked) [II-21, 2,N-Dimethyl-2-(3,3,4,4,4-pentafluoro-butane-1-sulfonyl)-4-trifluoromethylsulfanyl-butyramide], the mortality at 2500 ppm with Anthonomus grandis (setting [3]) and in the data set on Ceratitis capitata (setting [3]) was more than 90% throughout.

`N#CC(CCSC(F)(F)F)S(=O)(=O)Cc1ccc(Cl)nc1` (centres unmarked) [II-7, 2-(6-Chloro-pyridin-3-ylmethanesulfonyl)-4-trifluoromethylsulfanyl-butyronitrile] showed a melting point of 122 to 124 °C.

In turn, `CC(C#N)(CCSC(F)(F)F)S(=O)(=O)Cc1cccc(C(F)(F)F)c1` (centres unmarked) [II-6, 2-Methyl-2-(3-trifluoromethyl-phenylmethanesulfonyl)-4-trifluoromethylsulfanyl-butyronitrile] displayed a melting point of 92 to 94 °C. For the same compound, the EC50 with Aedes aegypti is less than 5 µg/mL.

Consider `N#CC(CCC(F)(F)F)S(=O)(=O)CCC(F)(F)C(F)(F)F` (centres unmarked) [CE. 1, reference compound], for which the “activity in [%]” value in the data set on Heliothis virescens (800 ppm, scale 0% no biological activity to 100% total control) is on record as 0%.

As to `N#CC(CCSC(F)(F)F)S(=O)(=O)CCC(F)(F)C(F)(F)C(F)(F)F` (centres unmarked) [II-24, 2-(3,3,4,4,5,5,5-Heptafluoro-pentane-1-sulfonyl)-4-trifluoromethylsulfanyl-butyronitrile], the mortality at 2500 ppm in the data set with Megoura viciae, in the data set with Myzus persicae and in the data set with Anthonomus grandis was more than 90% each time.

As to `CCCC(C#N)(CCSC(F)(F)F)S(=O)(=O)CCC(F)(F)C(F)(F)F` (centres unmarked) [II-18, 2-(3,3,4,4,4-Pentafluoro-butane-1-sulfonyl)-2-(2-trifluoromethylsulfanyl-ethyl)-pentanenitrile], the mortality at 2500 ppm in the data set on Anthonomus grandis (setting [3]) and in the data set on Ceratitis capitata (setting [3]) was more than 90% in each case. In the data set on Aedes aegypti, this compound had an EC50 of less than 5 µg/mL.

Turning to `CC(C#N)(CCSC(F)(F)F)S(=O)(=O)Cc1ccc(C(F)(F)F)cc1` (centres unmarked) [II-12, 2-Methyl-2-(4-trifluoromethyl-phenylmethanesulfonyl)-4-trifluoromethylsulfanyl-butyronitrile], the melting point is 102 to 104 °C.

On to `CC(CCSC(F)(F)F)(C(=O)O)S(=O)(=O)CCC(F)(F)C(F)(F)F` (centres unmarked) [II-19, 2-Methyl-2-(3,3,4,4,4-pentafluoro-butane-1-sulfonyl)-4-trifluoromethylsulfanyl-butyric acid], for which the mortality at 2500 ppm in the data set on Megoura viciae (setting [1]) and with Anthonomus grandis (setting [3]) was more than 90% in each case.

As to `CCOC(=O)C(CCSC(F)(F)F)S(=O)(=O)CCC(F)(F)C(F)(F)F` (centres unmarked) [II-3, Ethyl 2-(3,3,4,4,4-Pentafluoro-butane-1-sulfonyl)-4-trifluoromethylsulfanyl-butyrate], the mortality at 2500 ppm with Megoura viciae (setting [1]), with Myzus persicae (setting [2]), in the data set with Anthonomus grandis (setting [3]) and in the data set with Ceratitis capitata (setting [3]) was more than 90% each time. Moreover, the EC50 in the data set on Aedes aegypti was less than 5 µg/mL.

On to `CC(C#N)(CCSC(F)(F)F)S(=O)(=O)CCC(F)(F)C(F)(F)C(F)(F)F` (centres unmarked) [II-25, 2-(3,3,4,4,5,5,5-Heptafluoro-pentane-1-sulfonyl)-2-methyl-4-trifluoromethylsulfanyl-butyronitrile], for which the mortality at 2500 ppm in the data set with Megoura viciae, in the data set on Myzus persicae, in the data set on Anthonomus grandis, in the data set on Heliothis virescens and with Ceratitis capitata was more than 90% in each case.
